In patent publication US20230357300A1, “TRITERPENE SAPONIN SYNTHESIS, INTERMEDIATES AND ADJUVANT COMBINATIONS” (priority 2017, published 2023):

Columns and labels:
[1] = test system: mice; assay: Engerix-B (hepatitis B vaccine) immunogenicity in mice, anti-HBsAg antibody; assay type: in vivo
Experimental: (§1) Experiments were conducted with Engerix-B (HBV adult vaccine) in groups of 10 mice. Initially 3 mcg, 1 mcg, 0.3 mcg, 0.1 mcg, and 0.03 mcg Engerix-B doses per mouse were tested. Mean resulting anti-HBsAg antibody levels were 92,512 mcg/ml, 64,255 mcg/ml, 24,847 mcg/ml, 3,682 mcg/ml, and 910 mcg/ml respectively, with the 0.03 dose being indistinguishable from controls (821 mcg/ml). The 0.3 mcg dose of Engerix-B was selected for further studies and this dose was used mixed with various doses of TiterQuil-1055 (TQL-1055 / Compound I-4). The resulting geometric mean antibody concentrations are summarized in FIG. 4 of the present application.

[2] = test system: mice; assay type: in vivo; settings: for changes in blood chemistry or hematology results: mice vaccinated SC days 1 and 15; for weight loss (body weight): mice, 50 mcg TiterQuil-1055, 20 mcg QS-21; for liver histopathology (hepatocellular cytoplasmic vacuolization / vacuolar changes): sacrificed day 22, 33 tissues examined
Experimental: (§2) Adacel doses containing 1, 0.3, and 0.1 mcg of pertussis toxin per mouse were administered subcutaneously (SC, with no immunological adjuvant), using 2 vaccinations 4 weeks apart, resulting in a mean of 1,618 mcg, 898 mcg, and 107 mcg respectively of anti-PT antibody per ml of serum drawn 2 weeks after the second vaccination. The 0.1 mcg dose was indistinguishable from unvaccinated controls (96 mcg/ml). A 0.5 mcg dose of Adacel was selected for a pharmacology/toxicology (pharm/tox) study. The serological results for this study are summarized in FIG. 3 of the present application.
A pharm/tox study was conducted in 7 groups of 5 mice: 1) PBS alone, 2) 50 mcg TiterQuil-1055, 3) 20 mcg QS-21, 4) Adacel 2.5 mcg pertussis toxin (⅕ the human dose), 5) Adacel + QS-21 (20 mcg QS-21), 6) Adacel + TiterQuil-1055 (50 mcg), 7) Adacel + TiterQuil-1055 (50 mcg). Mice were vaccinated SC on days 1 and 15, weighed daily, and bled and sacrificed on day 22, except for group 7 which was sacrificed on day 29. […] Histopathology of 33 different tissues was performed on all mice. Detected abnormalities were restricted to the liver. […] This abnormality was short lived and was no detected in group 7, which was sacrificed one week after groups 1-6.

[3] = Stability at 37° C.; assay type: physicochemical; settings: for degradation: after two weeks at 37° C.
Experimental: (§3) Natural and synthetic QS-21 (SQS-21 or SAPONEX®) and a variety of analogs were tested for hemolytic activity. […] FIG. 5 depicts results a hemolytic assay performed with TiterQuil-1055. In a companion toxicity study three days after immunization, animals that received 20 mcg of QS-21 have lost 8-10% of their body mass on average, whereas PBS, TiterQuil-101 and TiterQuil-1055 recipients have gained 5% on average (normal weight gain in young mice). Without being bound by theory, hemolytic activity may be a direct result of degradation of QS-21 under physiologic conditions and TiterQuil-1055′s lack of hemolytic activity may result from improved stability.

[4] = test system: hemolysis; assay: Hemolytic assay; assay type: cell-based
Experimental: FIG. 5 depicts data showing the hemolytic activity of QS-21 at 2uM, 5uM and 20uM, and Compound 26 (TiterQuil-1-0-5-5 / TQL-1055) at 20uM, 100uM and 200uM. % Hemolytic activity reported as % of Triton-X100/SDS lysis control.
as §3

[5] = Body weight of mice in the Engerix-B / TiterQuil-1055 dose study; assay type: in vivo
Experimental: as §1

[6] = test system: mice; assay: Adacel (Tdap vaccine) immunogenicity in mice, anti-PT antibody in serum; assay type: in vivo; settings: for augmentation of antibody levels compared to immunization with Adacel alone: 2 weeks after second SC immunization, adjuvant given with Adacel
Experimental: as §2

[7] = Companion toxicity study, body mass three days after immunization; assay type: in vivo, mice
Experimental: as §3

[8] = cited from earlier work
[9] = 50 mcg TiterQuil-1055, 20 mcg QS-21, Adacel 2.5 mcg pertussis toxin

Compound: CC1O[C@@H](OC2C(O)[C@@H](NC(=O)CCCCCCCCCCC(=O)O)C(CO)O[C@H]2OC(=O)[C@]23CCC(C)(C)CC2C2=CCC4C5(C)CC[C@H](O)C(C)(C=O)[C@@H]5CC[C@@]4(C)C2(C)CC3O)C(O)C(O)[C@H]1O[C@@H]1OC[C@@H](O)C(O)C1O (stereo partly shown) [TiterQuil-1055]
- increase in antibody levels compared to Engerix-B alone ([1]; 10 mcg TiterQuil-1055 mixed with 0.3 mcg Engerix-B): no serologic effect
- increase in antibody levels compared to Engerix-B alone ([1]; 30 mcg TiterQuil-1055 mixed with 0.3 mcg Engerix-B): > 6 fold
- increase in antibody levels compared to Engerix-B alone ([1]; 100 mcg TiterQuil-1055 mixed with 0.3 mcg Engerix-B): 5 fold
- antibody response at high adjuvant doses ([1]; TiterQuil-1055 doses above 50 mcg per mouse): Lack of antibody increase or decreasing responses
- weight loss ([2]; mice vaccinated SC days 1 and 15, weighed daily, 50 mcg TiterQuil-1055, 20 mcg QS-21, Adacel 2.5 mcg pertussis toxin): no other mice
- changes in blood chemistry or hematology results [2, 9]: No changes
- weight loss (body weight) [2]: No weight loss
- liver histopathology (hepatocellular cytoplasmic vacuolization / vacuolar changes) [2, 9]: No changes at all
- degradation [3]: without detectable degradation
- stability ([3]; compared with QS-21): increased stability
- hemolytic activity [4]: much lower or undetectable hemolytic activity
- weight loss ([5]; 30 mcg TiterQuil-1055 dose): No weight loss
- weight loss ([5]; 100 mcg TiterQuil-1055 dose): 4%
- weight loss ([5]; 300 mcg TiterQuil-1055 dose): 5%
- antibody levels 2 weeks later ([6]; Adacel with TiterQuil-1055, 2 weeks after the first reading): further increased
- augmentation of antibody levels compared to immunization with Adacel alone ([6]; groups of 5 mice): 70 fold
- antibody levels 2 weeks after the second SC immunization ([6]; pharm/tox study, groups of 5 mice, Adacel alone or Adacel with TiterQuil-1055): 52,344
- body mass gained on average [7]: 5%

Compound: QS-21 [reference compound]
- changes in blood chemistry or hematology results [2, 9]: No changes
- weight loss (body weight) [2]: 8-9%
- liver histopathology (hepatocellular cytoplasmic vacuolization / vacuolar changes) [2, 9]: Mild vacuolar changes
- degradation [3]: 20%
- hemolytic activity [4]: highly hemolytically active
- augmentation of antibody levels compared to immunization with Adacel alone ([6]; groups of 5 mice): 10 fold
- tolerated (maximum) dose in cancer patients ([8]; cancer patients, above it local and systemic side effects): 100 to 150 µg
- maximum dose for healthy patients ([8]; healthy patients): ~50 µg
- highest practical tolerable dose ([8]; well (non-cancer) adult and child recipients): 25 to 50 µg
- body mass lost on average ([7]; 20 mcg QS-21): 8-10%
